Measured values from publication PMC10510102, “Efficient Ligand Discovery Using Sulfur(VI) Fluoride Reactive Fragments” (ACS Chemical Biology, 2023).

Legend:
BCL6 BTB/POZ domain [1] = target: T1, BCL6 BTB/POZ domain (Homo sapiens, UniProt P41182, C67R/C84N/C8Q); assay: Conventional differential scanning fluorimetry (DSF); format: binding; design: hBCL6-Flag 3Cmut (5-129) produced in house; FLAG (C); made in house; conditions: for Tm: 10 μM protein, covalent complex (500 μM SF, 6 or 24 h) or 200 μM GSK137, mean ± SD, three replicates; for ΔTm: relative to unmodified BCL6
Description: We subsequently analyzed protein-fragment interactions using differential scanning fluorimetry (DSF) to explore the impact of these binding events on protein stability.[45] […] […]; this illustrates the impact of covalent modification on protein–ligand binding. […]
8.2. Conventional differential scanning fluorimetry (DSF)
BCL6-SF covalent complex preparation:
SFs 2f–i, 2p, 2q, 2s, and 2t in DMSO-d 6 (200 mM stock) or pure DMSO-d 6 were added to crystallizable BCL6 BTB/POZ domain (10 µM) in 20 mM Tris pH 8.5 and 200 mM NaCl. The reactions were incubated at 20 °C for 6 h (meta-substituted benzamide fragments) or 24 h (azetidinyl/piperidinyl fragments). Final concentrations: 10 µM protein, 500 µM SF, DMSO 0.25% v/v in 200 µL. Unreacted compound and DMSO-d 6 were removed by buffer-exchanging protein solutions into 20 mM Tris pH 8.5, 200 mM NaCl and 5% v/v glycerol inside Vivaspin 500 PES Centrifugal Concentration units. The protein was concentrated to 0.6–1.3 mg/mL within the units, according to UV-vis absorption spectrophotometry via a Nanodrop ND-1000 instrument. Protein was flash frozen using a dry ice/ethanol bath prior to […]
Differential scanning fluorimetry assay:
GSK137 (40 mM stock) or pure DMSO-d 6 were added to crystallizable BCL6 BTB/POZ domain (11 µM) in 20 mM Tris pH 8.5, 200 mM NaCl and 5% v/v glycerol to give solutions containing: 11 µM protein, DMSO 0.63% v/v and 222 µM GSK137 (where applicable).
Concentrated protein-SF complexes were also thawed and diluted to 11 µM in 20 mM Tris pH 8.5, […] and 5% v/v glycerol.
SYPRO Orange dye (Invitrogen S6650) in extra dilution buffer (50×, eq. 1% v/v DMSO) was added to give assay-ready solutions with final concentrations: 10 µM protein, SYPRO 5×, DMSO 0.1% v/v in volume 80 µL for the protein-SF covalent complexes or 10 µM protein, SYPRO 5×, DMSO 0.6% v/v in volume 100 µL with and without 200 µM GSK137.
Each solution was aliquoted (3 × 20 µL) into wells of an opaque 384-well PCR microplate (Axygen PCR-384-LC480-W) and coated with silicone oil DC 200 (5 µL; Fluka Chemicals 85413). The microplate was centrifuged (1 min, 200 g) prior to insertion into a Fluodia T70 spectrophotometer (Photal Instruments). The fluorescence intensity was detected (emission wavelength: […]) as the plate instrument interior was heated from 27–75 °C using a temperature stepping mode (waiting time before measurement: 60 s; fluorescence measurement interval: 45 s). The approximate temperature gradient was 0.5 °C min-1.
The fluorescence intensity data from the individual replicates of each sample type were normalized and identically truncated within GraphPad Prism 5.0.4.11 These values were subsequently fitted to equation (4) corresponding to a Boltzmann sigmoid in order to obtain the melting temperature (“V50”; T m) of the protein:
Y=BOTTOM+((TOP+BOTTOM)/(1+exp((V50–X)/SLOPE))) (4)
The three obtained T m values were averaged to give a final T m value in each case. The normalized fluorescence data for the three replicates of each sample were averaged to yield a single dataset for each case, which were then plotted in GraphPad Prism 5.0.4 to give the plots shown in the manuscript.11
Table S9. Thermal melting temperatures of unmodified and covalently modified BCL6 BTB/POZ domain as determined by differential scanning fluorimetry measurements.
The arithmetic mean and standard deviation from three replicates are shown.
Hit Chemotype Protein Species Tm / °C ΔT m / °C […]
meta-Substituted Benzamide BCL6 + 2g 70.4 ± 0.3 +11.7
Azetidinyl Fragments BCL6 + 2h 55.5 ± 0.1 −3.2 […]
8.3. Protocol for kinetic analyzes (BCL6)
The (resynthesized and purified) SF hits (2f–i) were plated into seven Greiner 384 white low volume plate from a 10 mM source in DMSO. Differing volumes were added such that the final concentrations for each compound would be: 100, 50, 20, 10, or 5 µM after adding 15 µL of protein stock solution per well. […]

BCL6 BTB/POZ domain [2] = target: T1, BCL6 BTB/POZ domain; assay: Displacement study with GSK137, intact protein LC-MS; format: binding; design: hBCL6-Flag-6H-Avi 3Cmut (5–129) produced as part of the GSK/GenScript collaboration; Flag (C); 6H (His6) (C); Avi (C); conditions: for Modification (GSK137 treatment) / Modification (DMSO-d6 treatment): 1 μM protein, 50 μM SF, 20 °C, 24 h, average of duplicate; for Modification (GSK137 treatment): 50 μM GSK137; for Displacement Ratio: DModification/Modification(DMSO-d6 treatment); for Displacement: attenuation of covalent modification by GSK137; for DModification: difference DMSO-d6 vs GSK137 treatment
From the text: With additional hits identified from the iterative screen, we sought to obtain further structural and biophysical information to better understand how these reactive fragments bind to BCL6. A total of eight SF hits were resynthesized and purified: the four from the original screen (2f–i) and four from the iterative screen (2p, 2q, 2s, and 2t). […]
8. BCL6 – Further investigations into hits by structural and biophysical studies
8.1. Displacement study with GSK137
The (resynthesized and purified) SF hits (2f–i, 2p, 2q, 2s, and 2t) were plated into a Greiner 384 white low volume plate from a 10 mM source in DMSO, or DMSO-d 6 only as a control. GSK137 (11) was also added from a 10 mM source in DMSO. Purified BCL6 diluted from original stock into a buffer made up of HEPES (pH 7.5, 25 mM) and NaCl (50 mM) in distilled MS-grade water (15 µL per well) was subsequently added across the plate. Final concentrations: 1 µM protein; 50 µM SF; 50 µM GSK137. The plate was sealed, centrifuged (1 min, 1000 rpm), incubated at 20 °C for 24 h, and subsequently analyzed by intact protein LC-MS. This was performed in duplicate and average covalent modification yields were used for analysis.
Table S8. Quantitative output from intact LC-MS analysis of BCL6 BTB/POZ domain reacted with SFs after incubation of DMSO-d 6 or GSK137. Extent of displacement measured as (DModification/Modification(DMSO-d 6 treatment)). […]

With `NC(=O)c1ccccc1OC1CN(C(=O)Cc2ccc(S(=O)(=O)F)cc2)C1` [2i] the Tm (BCL6 BTB/POZ domain [1]) was 59.9 ± 0.4 °C, the ΔTm (BCL6 BTB/POZ domain [1]) was “+1.2 °C” and the “Modification (GSK137 treatment)” value (BCL6 BTB/POZ domain [2]) was 1.6%. The “Modification (DMSO-d6 treatment)” value (BCL6 BTB/POZ domain [2]) was 19.7%, the “Displacement Ratio” value (BCL6 BTB/POZ domain [2]) was 0.92 and the Displacement (BCL6 BTB/POZ domain [2]) was 92%. For the same compound, the DModification (BCL6 BTB/POZ domain [2]) was 18.1%.
`O=C(Cc1ccc(S(=O)(=O)F)cc1)N1CC(Oc2ccc(F)c(F)c2)C1` [2h] was tested, and the Tm (BCL6 BTB/POZ domain [1]) was 55.5 ± 0.1 °C, the ΔTm (BCL6 BTB/POZ domain [1]) was −3.2 °C and the “Modification (GSK137 treatment)” value (BCL6 BTB/POZ domain [2]) was 1.6%. For the same compound, the “Modification (DMSO-d6 treatment)” value (BCL6 BTB/POZ domain [2]) was 10.3%, the “Displacement Ratio” value (BCL6 BTB/POZ domain [2]) was 0.84 and the Displacement (BCL6 BTB/POZ domain [2]) was 84%. For the same compound, the DModification (BCL6 BTB/POZ domain [2]) was 8.7%.
In the case of `CC(=O)Nc1cccc(CNC(=O)Cc2ccc(S(=O)(=O)F)cc2)c1` [2g], the Tm (BCL6 BTB/POZ domain [1]) is reported as 70.4 ± 0.3 °C, the ΔTm (BCL6 BTB/POZ domain [1]) is reported as “+11.7 °C” and the “Modification (GSK137 treatment)” value (BCL6 BTB/POZ domain [2]) is reported as 4.8%. For the same compound, the “Modification (DMSO-d6 treatment)” value (BCL6 BTB/POZ domain [2]) was 25.0%, the “Displacement Ratio” value (BCL6 BTB/POZ domain [2]) was 0.81 and the Displacement (BCL6 BTB/POZ domain [2]) was 81%. For the same compound, the DModification (BCL6 BTB/POZ domain [2]) was 20.2%.
For `CN(C)C(=O)Nc1cccc(CNC(=O)Cc2ccc(S(=O)(=O)F)cc2)c1` [2f], the Tm (BCL6 BTB/POZ domain [1]) was 66.6 ± 0.3 °C, the ΔTm (BCL6 BTB/POZ domain [1]) was “+7.9 °C” and the “Modification (GSK137 treatment)” value (BCL6 BTB/POZ domain [2]) was 3.8%. The “Modification (DMSO-d6 treatment)” value (BCL6 BTB/POZ domain [2]) was 17.6%, the “Displacement Ratio” value (BCL6 BTB/POZ domain [2]) was 0.78 and the Displacement (BCL6 BTB/POZ domain [2]) was 78%. It also gave a DModification (BCL6 BTB/POZ domain [2]) of 13.8%.
